Laboratory results: US20230240989A1, “LIPOSOMAL OZONE NANOSOLUTIONS” (priority 2021, published 2023)
Several values for one entry are separate records, joined by “and”; a condition that tells them apart may be missing. Equal entries are not always repeated. Where two headings read alike, the source gives them in different places.

Columns and labels:
[1] = system: L-929 mouse fibroblast cell line; conditions: 48 h
[2] = system: BALB/c 3T3 (CCL-163) cell line; conditions: mouse, 48 h
[3] = system: back skin of New Zealand albino rabbits; assay: Irritation test TS EN ISO 10993-10 (injection solution); format: in vivo, rabbit; conditions: for Primary irritation score (score average): 24th-72nd hour, 1st hour not included
From the text: Test material given under the title of TS EN ISO 10993-10:2010 annex A A.2,2 Liquid test materials; Liquids should be tested without dilution or by direct precipitation or, if not applicable, by diluting with physiological saline to ¼ dose, which is the usage dose in accordance with the directive that it should be tested by diluting with a suitable liquid.
Sodium lauryl sulphate (SLS) was used as a positive control and distilled water was used as a negative control.
SLS-impregnated sponge was applied to the positive control area (area no 3). The samples were covered with gauze, fixed with a bandage, and topically contacted with the back skin for 4 hours.
The primary irritation index was determined by evaluating the application areas (1±0.1) s, (24±2) s, (48±2) s, and (72±2) hours after the 4th hour application, according to the skin reaction score given in Chart 1. As stated in the standard, the 1st hour was not included in the calculation.

albino guinea pigs = assay: Sensitization test, Closed Patch-Buehler method; conditions: per animal
[4] = system: back skin of New Zealand albino rabbits; assay: Skin irritation test TS EN ISO 10993-10 (barrier solution)
From the text: Three healthy young New Zealand albino rabbits with a body weight of 2-3 kg were used as experimental animals.
Test material given under the title of TS EN ISO 10993-10:2010 annex A A.2,2 Liquid test materials; Liquids were applied without dilution or by direct precipitation or, if not applicable, at a dose of 1600 ppm, which is the usage dose according to the guideline. […] The sponge impregnated with the nanosolution of the invention was kept in direct contact with the sample application areas. SLS impregnated sponge was applied to the positive control area. The samples were covered with gauze, fixed with a bandage, and topically contacted with the back skin for 4 hours. The primary irritation index was determined by evaluating the application areas (1±0.1) […], and (72±2) hours after the 4th hour application, according to the skin reaction score given in Chart 1. As stated in the standard, the 1st hour was not included in the calculation.

[5] = system: inner cheek pouch of Syrian hamsters; assay: Oral mucosal irritation test
Protocol: Oral mucosal irritation test was carried out considering the TS EN ISO 10993-10:2010 standard, the experimental animal used in the test is considered according to TS EN ISO 10993-2:2006 standard, the material preparation is made according to TS EN ISO 10993-12:2012 standard guidelines. The test is performed for materials intended to come into contact with oral tissue and where safety data cannot be obtained by other means.
Animals were acclimated to the environment by taking care of them as specified in TS EN ISO 10993-2:2006. Healthy young adult Syrian hamsters of both sexes, unrelated to a single strain, were used for testing. Product sample-impregnated gauze was placed in the inner cheek pouch of each animal under ketamine/Xylazine anesthesia. The exposure time was evaluated according to the rule of reflecting the actual expected use time of the material, and the sample was kept in the inner cheek pouch for 1 hour.
Test material given under the title of ISO 10993-10:2010 annex A A.2,2 Liquid test materials; Liquids were applied without dilution or by direct precipitation or, if not applicable, at a dose of 1600 ppm, which is the usage dose according to the guideline. Saline solution-impregnated absorbent gauze was used as negative control. As a positive control, HCl acid solution adjusted to pH 1.5 was used in our laboratory based on the rule that liquids with pH 2 and below are considered irritating.
The left inner cheek pouch of each animal was evaluated for the experimental sample, and the contralateral (Right) inner cheek was considered as the negative control. No material was placed into the right side inner cheek pouch, it was only washed with physiological saline and dissected at the end of the experiment.
Gauze cloth impregnated with a usage dose of 1600 ppm of the nanosolution of the invention was placed in the left inner cheek pouch of Syrian hamsters under ketamine/Xylazine anesthesia, whose inner cheeks were emptied and washed with saline. After the exposure of the subject to the sample for 1 hour, the sample was removed and the inner cheek was rinsed with saline solution, taking care not to contaminate the other cheek. Experiment (left) and control (right) inner cheek pouches were evaluated macroscopically according to chart 1. The experiment was terminated after 1 hour of contact.
According to the standard directive, the exposure time should reflect the actual expected use time of the material, but should not be less than 5 minutes. The repeated observation rating (Table 1) performed at long-term chronic exposures is summed up and divided by the total repeat application 4. Since it is a device with subacute use, the application was performed 4 times with one hour intervals. Observations of the sample applied left inner cheek were compared with the right inner cheeks (negative control) washed with saline.

[6] = system: female rats of Sprague downey breed; conditions: skin biopsy of laparotomy incision line, group average
From the text: A total of 72 skin biopsies of 72 animals from the abdomen were examined in the experimental groups in the applications on the wound lips on the skin line where the incision was made; Physiological Salt Water (FTS), 1% Lidocaine, ozone-free nanosolution, 250 ppm ozone nanosolution, 500 ppm ozone nanosolution, 500 ppm ozone nanosolution+2% Lidocaine (50% blend), 1000 ppm Ozone nanosolution+2% Lidocaine (50% blend) and 2000 ppm ozone nanosolution+2% Lidocaine (50% blend). Lesions were scored and group average scores were obtained.

[7] = left cheek (experiment), single subject

Question: For C[S+](C)[O-] [PC, Dimethylsulfoxide], which Vitality % ([1]; 10 % v/v) is on record?
Answer: The Vitality % was 53.44%.

Question: What about the Vitality % ([1]; 30 % v/v) of the same compound?
Answer: Its Vitality % is 36.46%.

Question: What about the Vitality % ([2]; 3 % v/v) of the same compound?
Answer: The Vitality % was 31.25%.

Question: What about the “Optical density (OD) mean value 570 nm ± standard deviation (SD)” value ([2]; 10 % v/v) of the same compound?
Answer: Its value is 0.1 ± 0.06.

Question: And the Vitality % ([2]; 10 % v/v)?
Answer: Its Vitality % is 24.37%.

Question: And the “Optical density (OD) mean value 570 nm ± standard deviation (SD)” value ([2]; 30 % v/v)?
Answer: Its value is 0.078 ± 0.02.

Question: How did the “Primary irritation score (score average)” value ([3]; Rabbit 1) turn out when CCCCCCCCCCCCOS(=O)(=O)[O-].[Na+] [Positive control, Sodium lauryl sulphate] was run?
Answer: Its value is 2.167 ± 1.169.

Question: What about the “Primary irritation score (score average)” value ([3]; Rabbit 2) of the same compound?
Answer: The value was 1.333 ± 1.211.

Question: And the “Primary irritation score (score average)” value ([3]; Rabbit 3)?
Answer: Its value is 1.500 ± 1.049.

Question: What about the “Primary Irritation Index” value ([3]; mean of three rabbits) of the same compound?
Answer: The value was 1.666.

Question: And the “Magnusson and Kligman Rating” value (albino guinea pigs; 24th hour after stimulation, 2020 Oct. 27)?
Answer: The value was 2.

Question: And the “Magnusson and Kligman Rating” value (albino guinea pigs; 48th hour after stimulation, 2020 Oct. 28)?
Answer: Its value is 2.

Question: And the “Magnusson and Kligman Rating” value (albino guinea pigs; Induction first week, application date 2020 Sep. 24, 6 h closed patch)?
Answer: The value was 1.

Question: And the “Magnusson and Kligman Rating” value (albino guinea pigs; Induction first week, application date 2020 Sep. 26, 6 h closed patch)?
Answer: Its value is 1.

Question: And the “Magnusson and Kligman Rating” value (albino guinea pigs; Induction first week, application date 2020 Sep. 28, 6 h closed patch)?
Answer: The value was 1.

Question: And the “Magnusson and Kligman Rating” value (albino guinea pigs; Induction, application date 2020 Oct. 2, 6 h closed patch, sulphate)?
Answer: The value was 2 (3×) and 1 (2×).

Question: And the “Magnusson and Kligman Rating” value (albino guinea pigs; Induction, application date 2020 Oct. 4, 6 h closed patch)?
Answer: Its value is 2.

Question: What about the “Magnusson and Kligman Rating” value (albino guinea pigs; Induction, application date 2020 Oct. 7, 6 h closed patch) of the same compound?
Answer: The value was 2.

Question: And the “Magnusson and Kligman Rating” value (albino guinea pigs; Induction, application date 2020 Oct. 9, 6 h closed patch, sulphate)?
Answer: Its value is 2 (4×) and 3.

Question: What about the “Magnusson and Kligman Rating” value (albino guinea pigs; Induction, application date 2020 Oct. 12, 6 h closed patch, sulphate) of the same compound?
Answer: The value was 3 (4×) and 2.

Question: What about the “Magnusson and Kligman Rating” value (albino guinea pigs; Induction, application date 2020 Sep. 31, 6 h closed patch, sulphate) of the same compound?
Answer: The value was 1 (4×) and 2.

Question: And the “Magnusson and Kligman Rating” value (albino guinea pigs; Stimulation application, 2020 Oct. 26, sulphate)?
Answer: Its value is 2 (4×) and 3.

Question: What about the “Primary Irritation Score Rabbit 1” value ([4]; 24th, 48th, 72nd hours) of the same compound?
Answer: Its value is 2.167 ± 1.169.

Question: And the “Primary Irritation Score Rabbit 2” value ([4]; 24th, 48th, 72nd hours)?
Answer: Its value is 1.333 ± 1.2.

Question: And the “Primary Irritation Score Rabbit 3” value ([4]; 24th, 48th, 72nd hours)?
Answer: Its value is 1.500 ± 1.049.

Question: What about the “Primary Irritation Index” value ([4]; three rabbits) of the same compound?
Answer: The value was 1.666.

Question: And the “macroscopic examination of inner cheek mucosa” value ([5]; hamster, in vivo)?
Answer: Its value is “Areas of mucosal erosion were noted”.

Question: What about the “Microscopic irritation score Edema” value [5, 7] of the same compound?
Answer: The value was 0.

Question: And the “Microscopic irritation score Epithelium” value [5, 7]?
Answer: Its value is 3.

Question: What about the “Microscopic irritation score Leukocyte infiltration” value [5, 7] of the same compound?
Answer: Its value is 2 (Mild (26 to 50)).

Question: And the “Microscopic irritation score Vascular congestion” value [5, 7]?
Answer: The value was 1.

Question: With CCN(CC)CC(=O)Nc1c(C)cccc1C [1% lidocaine] as the compound, how does the “Collagen Epidermis/Dermis (%)” value [6] read?
Answer: The value was 25.33 ± 2.46%.

Question: What about the Bleeding score ([6]; scoring out of 3) of the same compound?
Answer: The Bleeding score was 0.83 ± 0.54.

Question: What about the Connective tissue score ([6]; scoring out of 3) of the same compound?
Answer: The Connective tissue score was 2.67 ± 0.33.

Question: And the Edema score ([6]; scoring out of 3)?
Answer: The Edema score was 0.67 ± 0.33.

Question: What about the Inflammation score ([6]; scoring out of 3) of the same compound?
Answer: Its Inflammation score is 2.50 ± 0.34.

Question: What about the Vascular formation score ([6]; scoring out of 3) of the same compound?
Answer: Its Vascular formation score is 1.83 ± 0.17.
